# From patent publication US8445207B2, “Genes based on thalidomide, valproic acid and methotrexate treatment for screening of drug inducing teratogenicity and screening method using thereof” (priority 2009, dated 2013)
# Test system: JEG-3 (human placental choriocarcinoma cell line)
# Assay: Oligo microarray gene expression in drug-treated JEG-3 (Cy5 treated / Cy3 control)
# Assay type: cell-based
# Description: Thalidomide, valproic acid, and methotrexate were treated to human placental choriocarcinoma cell line at the concentrations determined above (Inhibition concentration: the concentration that can kill approximately 30% of the total cells, that is the concentration of 70% viability, IC30). mRNA was extracted from the drug treated cell line, followed by synthesis of cDNA which was labeled with Cy5. The non-treated control was labeled with Cy3. The fluorescence labeled cDNA was hybridized with 41K (thalidomide), 44K (valproic acid, methotrexate) human whole genome oligomicroarray chips (Agilent, USA), followed by fluorescent image scanning to analyze gene expression patterns (see FIG. 4). Volcano Plot of each substance was also attached. Y axis indicates probability (generally converted by −log 10). X axis indicates differential expression, which is presented by log-ratio.
# Total RNA was separated from the treated cell by using trizol reagent (Invitrogen Life Technologies, USA) according to the manufacture's instructions, followed by purification using RNeasy mini kit (Qiagen, USA). Genomic DNA was eliminated during RNA purification using RNase-free DNase set (Qiagen, USA).
# 30 μg of the total RNA obtained above and 2 μg (1 μg/μl) of oligo (dT) primer were mixed, followed by reaction at 65° C. for 10 minutes. Annealing was performed in ice right after the reaction. Reagents were prepared as shown in Table 1 for reverse transcription of the annealed RNA.
# The total RNA separated from the control group JEG-3 cells was labeled with Cy3-dUTP (green) and the total RNA separated from the experiment group JEG-3 cells treated with thalidomide, valproic acid and methotrexate was labeled with Cy5-dUTP (red). At this time, the two samples were mixed and purified by Microcon YM-30 column (Millipore, USA).
# Hybridization and washing were performed by the manufacturer's (GenoCheck, Korea) instructions. Particularly, hybridization was performed in a 62° C. oven for 12 hours. As a DNA microarray chip, 44 k whole human genome oligo microarray (Agilent, USA) was used. After washing (2 minutes with 2×SSC/0.1% SDS, three minutes with 1×SSC, 2 minutes with 0.2×SSC), the slide was dried by centrifugation at 800 rpm for 3 minutes.
# Hybridization image on the slide was scanned with Genepix 4000B (Axon Instruments, USA). Fluorescence image of the chip on which non-hybridized genes had been washed out was obtained by using laser fluorescence scanner. Green fluorescence image indicates the activity of gene specifically expressed in the control group and red fluorescence image indicates the activity of gene specifically expressed in the experimental group. […] Scanned image was analyzed by using GenePix 4.1 software (Axon Instruments, USA) to calculate gene expression rate.
# [1] = out of 21797 (thalidomide), 21921 (valproic acid), 24006 (methotrexate) genes
# [2] = treated at IC30, up-regulated gene, (h) Nervous system development
compound,measurement,setting,value
"CCCC(CCC)C(=O)O [VPA, valproic acid]","cDNA microarray (Cy3/Cy5 ratio), KIAA0310",GenBank AB002308,1.59
same,"cDNA microarray (Cy3/Cy5 ratio), ATP10B",GenBank AB018258,2.03
same,"cDNA microarray (Cy3/Cy5 ratio), TTF2",GenBank AB209845,1.81
same,"cDNA microarray (Cy3/Cy5 ratio), TncRNA",GenBank AF001893,3.61
same,"cDNA microarray (Cy3/Cy5 ratio), C4orf19",GenBank AK001879,1.87
same,"cDNA microarray (Cy3/Cy5 ratio), CYP19A1",GenBank AK023571,1.78
same,"cDNA microarray (Cy3/Cy5 ratio), SLC40A1",GenBank AK023574,1.7
same,"cDNA microarray (Cy3/Cy5 ratio), ABTB2",GenBank AK095632,1.6
same,"cDNA microarray (Cy3/Cy5 ratio), TUBB3",GenBank AK122757,1.7
same,"cDNA microarray (Cy3/Cy5 ratio), MGC27016",GenBank AK125877,2.62
same,"cDNA microarray (Cy3/Cy5 ratio), GLCCI1",GenBank AK126731,2.27
same,"cDNA microarray (Cy3/Cy5 ratio), TFCP2L4",GenBank BC036890,3.12
same,"cDNA microarray (Cy3/Cy5 ratio), RGS2",GenBank BC042755,3.04
same,"cDNA microarray (Cy3/Cy5 ratio), SIAT7A",GenBank BC063830,1.69
same,"cDNA microarray (Cy3/Cy5 ratio), B7-H4",GenBank BX648021,0.1
same,"cDNA microarray (Cy3/Cy5 ratio), COBLL1",GenBank BX649112,1.52
same,"cDNA microarray (Cy3/Cy5 ratio), CGA",GenBank NM_000735,2.14
same,"cDNA microarray (Cy3/Cy5 ratio), PARP1",GenBank NM_001618,0.61
same,"cDNA microarray (Cy3/Cy5 ratio), SERPINB9",GenBank NM_004155,3.02
same,"cDNA microarray (Cy3/Cy5 ratio), ST8SIA4",GenBank NM_005668,1.79
same,"cDNA microarray (Cy5 treated / Cy3 control ratio), ABL1",GenBank NM_007313,0.3
same,"cDNA microarray (Cy3/Cy5 ratio), GRLF1",GenBank NM_024342,0.55
same,"cDNA microarray (Cy3/Cy5 ratio), LGP1",GenBank NM_032484,0.52
same,"cDNA microarray (Cy3/Cy5 ratio), NCOA3",GenBank NM_181659,1.62
same,"cDNA microarray (Cy3/Cy5 ratio), SR140",GenBank XM_031553,0.36
same,"cDNA microarray (Cy3/Cy5 ratio), SLC7A8",GenBank Y18483,2.48
same,"Ratio of intermediate value, FLJ13855","Genbank AK091644, drug at IC30",0.44
same,"Ratio of intermediate value, GRLF1","Genbank BI494022, NM_024342, drug at IC30",0.55
same,"Ratio of intermediate value, B7-H4","Genbank BX648021, drug at IC30",0.10
same,"Ratio of intermediate value, PARP1","Genbank NM_001618, drug at IC30",0.61
same,"Ratio of intermediate value, ABL1","Genbank NM_007313, drug at IC30",0.30
same,"Ratio of intermediate value, LGP1","Genbank NM_032484, drug at IC30",0.52
same,"Ratio of intermediate value, SR140","Genbank XM_031553, drug at IC30",0.36
same,genes down-regulated (ratio of intermediate value less than 0.666),"JEG-3, drug at IC30, 48 hours",5.5%
same,genes up-regulated (ratio of intermediate value more than 1.5),"JEG-3, drug at IC30, 48 hours",5.54%
same,number of genes down-regulated,[1],1196
same,number of genes up-regulated,[1],1215
same,"Ratio of intermediate value, gene ALDH5A1 (NM_170740, ALDEHYDE DEHYDROGENASE 5 FAMILY, MEMBER A1 (SUCCINATE-SEMIALDEHYDE DEHYDROGENASE))",[2],4.68
same,"Ratio of intermediate value, gene ALS2 (NM_020919, AMYOTROPHIC LATERAL SCLEROSIS 2 (JUVENILE))",[2],2.40
same,"Ratio of intermediate value, gene C22orf9 (AY509035, ROUND-ABOUT, AXON GUIDANCE RECEPTOR, HOMOLOG 3 (DROSOPHILA))",[2],2.30
same,"Ratio of intermediate value, gene DLX2 (AB208823, NM_004405, DISTAL-LESS HOMEOBOX 2)",[2],3.18
same,"Ratio of intermediate value, gene DPYSL2 (NM_001386, DIHYDROPYRIMIDINASE-LIKE 2)",[2],3.34
same,"Ratio of intermediate value, gene DPYSL5 (AL713706, DIHYDROPYRIMIDINASE-LIKE 5)",[2],2.57
same,"Ratio of intermediate value, gene EDG1 (BC018650, ENDOTHELIAL DIFFERENTIATION, SPHINGOLIPID G-PROTEIN-COUPLED RECEPTOR, 1)",[2],2.34
same,"Ratio of intermediate value, gene EFCBP1 (L20470, VERY LOW DENSITY LIPOPROTEIN RECEPTOR)",[2],2.10
same,"Ratio of intermediate value, gene FABP7 (NM_001446, FATTY ACID BINDING PROTEIN 7, BRAIN)",[2],9.51
same,"Ratio of intermediate value, gene FLJ20489 (AK056650, IMMUNOGLOBULIN SUPERFAMILY, MEMBER 9)",[2],2.50
same,"Ratio of intermediate value, gene FLJ31842 (AY643499, HEXOSAMINIDASE B (BETA POLYPEPTIDE))",[2],2.38
same,"Ratio of intermediate value, gene GJA1 (NM_000165, GAP JUNCTION PROTEIN, ALPHA 1, 43 KDA (CONNEXIN 43))",[2],4.30
same,"Ratio of intermediate value, gene GRB14 (BM906235, INHIBITOR OF DNA BINDING 3, DOMINANT NEGATIVE HELIX-LOOP-HELIX PROTEIN)",[2],4.33
